Reference: patent US20130274276A1, “METHODS AND COMPOSITIONS FOR DETERMINING VIRUS SUSCEPTIBILITY TO NON-NUCLEOSIDE REVERSE TRANSCRIPTASE INHIBITORS” (Laboratory Corporation of America Holdings, priority 2012, published 2013)

Tests used:
Type in all cases: cell-based
[1] = tested on: HIV strain derived from an infected patient having a Y188L mutation; test: PhenoSenseGT report, susceptibility analysis of patient-derived HIV; settings: fold change in IC50 greater than the biological cutoff (BCO) for those drugs, FIG. 3
Procedure: FIG. 3 is a sample PhenoSenseGT® report showing the results of susceptibility analyses to various nucleoside reverse transcriptase inhibitors (NRTIs), non-nucleoside reverse transcriptase inhibitors (NNRTIs), and protease inhibitors (PIs).
Drug susceptibility tests performed with resistance test vectors were carried out using packaging host and target host cells consisting of the human embryonic kidney cell line 293. Susceptibility tests were carried out with the RTV libraries by using viral particles comprising the RTV libraries to infect a host cell in which the expression of the indicator gene is measured. The amount of indicator gene (luciferase) activity detected in infected cells is used as a direct measure of “infectivity,” i.e., the ability of the virus to complete a single round of replication. Thus, drug susceptibility can be determined by plotting the amount of luciferase activity produced by patient derived viruses in the presence of varying concentrations of the antiviral drug. By identifying the concentration of drug at which luciferase activity is half-maximum, the IC50 of the virus from which patient-derived segment(s) were obtained for the antiretroviral agent can be determined. The IC50 provides a direct measure of the susceptibility of the HIV infecting the patient to the drug. […]

[2] = tested on: HIV engineered to contain the Y188L reverse transcriptase mutation
Procedure: Site-directed mutagenesis (SDM) was performed to verify the association of Y188L with RPV resistance. The impact of this mutation was also evaluated and compared to the existing RPV RAMs (K101E/P, E138A/G/K/Q/R, V179L, Y181C/I/V, H221Y, F227C, and M230I/L) by performing in-silico site directed mutagenesis (is SDM) as a method for analyzing samples in the database that have wild type amino acids at RPV resistance positions except for the single mutation of interest. Samples were not excluded based on other NNRTI RAMs, or their NRTI and PI profile. In the is SDM analysis, fold change (FC) distribution of samples with each mutation was compared to specimens without the mutation, and the difference was evaluated for statistical significance using Mann-Whitney test. […]
Drug susceptibility tests performed with resistance test vectors were carried out using packaging host and target host cells consisting of the human embryonic kidney cell line 293. Susceptibility tests were carried out with the RTV libraries by using viral particles comprising the RTV libraries to infect a host cell in which the expression of the indicator gene is measured. The amount of indicator gene (luciferase) activity detected in infected cells is used as a direct measure of “infectivity,” i.e., the ability of the virus to complete a single round of replication. […]

[3] = tested on: HIV clinical specimens with Y188L and no known RPV resistance associated mutations; test: In-silico site directed mutagenesis (isSDM) analysis of matched phenotype/genotype database of clinical specimens; settings: 286 clinical specimens with Y188L and no known RPV resistance associated mutations; biological cutoff FC=2
Procedure: Rilpivirine (RPV) is a recently approved non-nucleoside reverse transcriptase inhibitor (NNRTI). […] Correlation analysis was performed among clinical specimens with both phenotypic and genotypic data (N=20,004). A novel mutation associated with phenotypic reduced rilpivirine susceptibility was identified, Y188L, as determined by a fold change in IC50 (FC) greater than the biological cutoff (BCO) for rilpivirine (FC=2).
Site-directed mutagenesis (SDM) was performed to verify the association of Y188L with RPV resistance. The impact of this mutation was also evaluated and compared to the existing RPV RAMs (K101E/P, E138A/G/K/Q/R, V179L, Y181C/I/V, H221Y, F227C, and M230I/L) by performing in-silico site directed mutagenesis (is SDM) as a method for analyzing samples in the database that have wild type amino acids at RPV resistance positions except for the single mutation of interest. Samples were not excluded based on other NNRTI RAMs, or their NRTI and PI profile. In the is SDM analysis, fold change (FC) distribution of samples with each mutation was compared to specimens without the mutation, and the difference was evaluated for statistical significance using Mann-Whitney test.
Drug susceptibility tests performed with resistance test vectors were carried out using packaging host and target host cells consisting of the human embryonic kidney cell line 293. […]

Row | SMILES | susceptibility of HIV with Y188L mutation (fold change in IC50 relative to biological cutoff) [1] | fold change in IC50 (FC) of the Y188L site directed mutant [2] | median fold change in IC50 (FC) of clinical specimens with Y188L [3]
1 | Cc1ccnc2c1NC(=O)c1cccnc1N2C1CC1 [nevirapine] | reduced susceptibility | – | –
2 | O=C1Nc2ccc(Cl)cc2[C@@](C#CC2CC2)(C(F)(F)F)O1 [efavirenz] | reduced susceptibility | – | –
3 | Cc1cc(/C=C/C#N)cc(C)c1Nc1ccnc(Nc2ccc(C#N)cc2)n1 [rilpivirine] | – | 6.1 fold | 9.2 fold
